Reference: patent publication US6911449B2, “Inhibition of matrix metalloproteases by substituted biaryl oxobutyric acids” (Bayer Pharmaceuticals Corporation, priority 1996, dated 2005)

Assays:
MMP-2 = MMP-2 (Homo sapiens, UniProt P08253); assay: biochemical; conditions: MMP-2 Fluorogenic IC50
MMP-9 = target: T1, MMP-9 (Homo sapiens, UniProt P14780); assay: P218 quenched fluorescence assay for MMP inhibition, MMP-9; type: biochemical; conditions: 6 μM P218 substrate, 25 min at 37° C., pH 6.5; read-out: MMP-9 Fluorogenic IC50
T1 construct: made in house
Text: (§1) P218 Quenched Fluorescence Assay for MMP Inhibition:
(§2) The P218 quenched fluorescence assay (Microfluorometric Profiling Assay) is a modification of that originally described by Knight, et al., FEBS Lett. 296, 263 (1992) for a related substance and a variety of matrix metalloproteinases (MMPs) in cuvettes. The assay was run with each invention compound and the three MMPs, MMP-3, MMP-9 and MMP-2, analyzed in parallel, adapted as follows for a 96-well microtiter plate and a Hamilton AT® workstation.
(§3) P218 Fluorogenic Substrate: P218 is a synthetic substrate containing a 4-acetyl-7-methoxycoumarin (MCA) group in the N-terminal position and a 3-[2,4-dinitrophenyl]-L-2,3-diaminopropionyl (DPA) group internally. This is a modification of a peptide reported by Knight (1992) that was used as a substrate for matrix metalloproteinases. Once the P218 peptide is cleaved (putative clip site at the Ala-Leu bond), the fluorescence of the MCA group can be detected on a fluorometer with excitation at 328 nm and emission at 393 nm. P218 is currently being produced BACHEM exclusively for Bayer. P218 has the structure:
(§4) H-MCA-Pro-Lys-Pro-Leu-Ala-Leu-DPA-Ala-Arg-NH2 (MW 1332.2)
Preparation of Human Recombinant Pro-Gelatinase B (MMP-9):
Recombinant Human Pro-MMP-9: Human pro-gelatinase B (pro-MMP-9) derived from U937 cDNA as described by Wilhelm, et al. J. Biol. Chem. 264, 17213 (1989) was expressed as the full-length form using a baculovirus protein expression system. The pro-enzyme was purified using methods previously described by Hibbs, et al. J. Biol. Chem. 260, 2493 (1984).
Activation of Pro-MMP-9: […] 20 μg/mL in 50 mM Tris at pH 7.4, 10 mM CaCl2, 150 mM NaCl, and 0.005% Brij-35 (MMP-9 activation buffer) was activated by incubation with 0.5 mM p-aminophenylmercuric acetate (APMA) for 3.5 h at 37° C. The enzyme was dialyzed against the same buffer to remove the APMA.
(§5) Hamiltion Microlab AT Plus: The MMP-Profiling Assay is performed robotically on a Hamilton MicroLab AT Plus®. The Hamilton is programmed to: (1) serially dilute up to 11 potential inhibitors automatically from a 2.5 mM stock in 100% DMSO; (2) distribute substrate followed by inhibitor into a 96 well Cytofluor plate; and (3) add a single enzyme to the plate with mixing to start the reaction. Subsequent plates for each additional enzyme are prepared automatically by beginning the program at the substrate addition point, remixing the diluted inhibitors and beginning the reaction by addition of enzyme. In this way, all MMP assays were done using the same inhibitor dilutions.
(§6) Millipore Cytofluor II. Following incubation, the plate was read on a Cytofluor II fluorometric plate reader with excitation at 340 nm and emission at 395 nm with the gain set at 80.
(§7) Microfluorometric Reaction Buffer (MRB): Dilution of test compounds, enzymes, and P218 substrate for the microfluorometric assay were made in microfluorometric reaction buffer consisting of 50 mM 2-(N-morpholino)ethanesulfonic acid (MES) at pH 6.5 with 10 mM CaCl2, […] NaCl, 0.005% Brij-35 and 1% DMSO.
(§8) MMP Microfluorometric Profiling Assay. The assay is done with a final substrate concentration of 6 μM P218 and approximately 0.5 to 0.8 nM MMP with variable drug concentrations. The Hamilton is programmed to serially dilute up to 11 compounds from a 2.5 mM stock (100% DMSO) to 10× the final compounds concentrations in the assay. Initially, the instrument delivers various amounts of microfluoromentric reaction buffer (MRB) to a 96 tube rack of 1 ml Marsh dilution tubes. The instrument then picks up 20 μl of inhibitor (2.5 mM) from the sample rack and mixes it with a buffer in row A of the Marsh rack, resulting in a 50 μM drug concentration. The inhibitors are then serially diluted to 10, 5, 1, 0.2, 0.05 and 0.01 μM. […]

MMP-3 = target: T2, MMP-3 (Homo sapiens, UniProt P08254); assay: P218 quenched fluorescence assay for MMP inhibition, MMP-3; type: biochemical; conditions: 6 μM P218 substrate, 25 min at 37° C., pH 6.5; read-out: MMP-3 Fluorogenic IC50
T2 construct: made in house; host or cells: CHO cells
Text: as §1, §2, §3, §4
Recombinant Human CHO Stromelysin (MMP-3)
Recombinant Human CHO Pro-MMP-3: Human CHO pro-stromelysin-257 (pro-MMP-3) was expressed and purified as described by Housley, et al., J. Biol. Chem. 268, 4481 (1993).
Activation of Pro-MMP-3: Pro-MMP-3 at 1.72 μM (100 μg/mL) in 5 mM Tris at pH 7.5, 5 mM CaCl2, 25 mM NaCl, and 0.005% Brij-35 (MMP-3 activation buffer) was activated by incubation with TPCK (N-tosyl-(L)-phenylalanine chloromethyl ketone) trypsin (1:100 w/w to pro-MMP-3) at 25° C. for 30 min. The reaction was stopped by addition of soybean trypsin inhibitor (SBTI; 5:1 w/w to trypsin concentration). This activation protocol results in the formation of 45 kDa active MMP-3, which still contains the C-terminal portion of the enzyme.
as §5, §6, §7, §8

[1] = Child, et al., J. Pharm. Sci., 66, 466 (1977); cited from earlier work

T2 sequence (P08254 100-477): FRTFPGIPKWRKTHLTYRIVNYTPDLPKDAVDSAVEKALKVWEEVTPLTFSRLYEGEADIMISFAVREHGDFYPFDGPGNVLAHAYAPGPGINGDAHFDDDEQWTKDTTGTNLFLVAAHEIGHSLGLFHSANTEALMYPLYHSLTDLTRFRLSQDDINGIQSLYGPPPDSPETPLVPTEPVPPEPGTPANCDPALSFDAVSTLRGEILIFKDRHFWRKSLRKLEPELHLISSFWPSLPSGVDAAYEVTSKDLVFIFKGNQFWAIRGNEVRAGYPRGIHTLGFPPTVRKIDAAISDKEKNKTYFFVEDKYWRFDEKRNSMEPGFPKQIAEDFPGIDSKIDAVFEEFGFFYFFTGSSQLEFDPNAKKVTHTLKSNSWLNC
T1 sequence (P14780 107-707 limits assumed): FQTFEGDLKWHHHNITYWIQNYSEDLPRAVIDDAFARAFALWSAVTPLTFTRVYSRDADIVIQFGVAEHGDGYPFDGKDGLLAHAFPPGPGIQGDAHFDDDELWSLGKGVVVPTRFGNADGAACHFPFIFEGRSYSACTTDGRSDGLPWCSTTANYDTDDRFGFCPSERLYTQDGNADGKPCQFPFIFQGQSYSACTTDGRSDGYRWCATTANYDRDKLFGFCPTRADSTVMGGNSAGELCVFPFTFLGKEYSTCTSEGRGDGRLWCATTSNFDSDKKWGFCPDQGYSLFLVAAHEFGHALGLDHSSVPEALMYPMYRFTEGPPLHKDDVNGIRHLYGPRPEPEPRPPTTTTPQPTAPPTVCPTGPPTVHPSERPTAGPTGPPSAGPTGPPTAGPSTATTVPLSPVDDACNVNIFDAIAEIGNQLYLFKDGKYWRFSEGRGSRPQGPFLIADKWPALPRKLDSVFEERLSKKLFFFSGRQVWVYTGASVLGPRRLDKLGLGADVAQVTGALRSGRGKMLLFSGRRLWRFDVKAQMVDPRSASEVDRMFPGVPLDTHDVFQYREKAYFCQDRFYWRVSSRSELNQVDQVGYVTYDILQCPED
Sequence of MMP-2 (P08253 110-660): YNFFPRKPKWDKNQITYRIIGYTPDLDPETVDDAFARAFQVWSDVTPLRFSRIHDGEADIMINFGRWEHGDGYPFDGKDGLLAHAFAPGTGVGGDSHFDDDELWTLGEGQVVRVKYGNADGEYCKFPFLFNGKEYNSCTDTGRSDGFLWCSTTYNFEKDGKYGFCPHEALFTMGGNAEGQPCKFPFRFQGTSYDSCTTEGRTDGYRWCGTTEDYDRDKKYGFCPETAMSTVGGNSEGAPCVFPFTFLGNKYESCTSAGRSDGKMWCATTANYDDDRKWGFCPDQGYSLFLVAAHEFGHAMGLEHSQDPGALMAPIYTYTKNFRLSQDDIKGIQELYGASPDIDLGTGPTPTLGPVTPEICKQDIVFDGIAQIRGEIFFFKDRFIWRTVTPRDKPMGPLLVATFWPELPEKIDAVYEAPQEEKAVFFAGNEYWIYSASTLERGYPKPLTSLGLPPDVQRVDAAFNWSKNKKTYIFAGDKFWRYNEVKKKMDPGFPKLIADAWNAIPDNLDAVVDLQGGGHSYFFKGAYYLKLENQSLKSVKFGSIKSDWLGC

Structure (SMILES)	IC50 (MMP-2) [nM]	IC50 (MMP-9) [nM]	IC50 (MMP-3) [nM]	activity as anti-inflammatory analgesic agents [1]	melting point [°C]
O=C(CC(CCn1nnc2ccccc2c1=O)C(=O)O)c1ccc(-c2ccc(Cl)cc2)cc1 (single isomer, unassigned) [Example 21, α-[2-(4′-chloro[1,1′-biphenyl]-4-yl)-2-oxoethyl]-4-oxo-1,2,3,-Benzotriazine-3(4H)-butanoic acid]	1.5	2.1	6.5	–	–
O=C(CC(CCn1ncc2ccccc2c1=O)C(=O)O)c1ccc(-c2ccc(Cl)cc2)cc1 (stereo not drawn) [Example 18, R/S α-[2-(4′-chloro[1,1′-biphenyl]-4-yl)-2-oxoethyl]-1-oxo-2(1H)-phthalazinebutanoic acid]	13	32	59	–	–
CC(CC(=O)c1ccc(-c2ccccc2)cc1)C(=O)O (centres unmarked) [XLVII]	–	–	–	inactive	–
O=C(CC(CCn1nnc2ccccc2c1=O)C(=O)O)c1ccc(-c2ccc(Cl)cc2)cc1 (single isomer, unassigned) [Example 20, α-[2-(4′-chloro[1,1′-biphenyl]-4-yl)-2-oxoethyl]-4-oxo-1,2,3,-Benzotriazine-3(4H)-butanoic acid]	57	84	320	–	–
O=C(c1ccc(-c2ccc(Cl)cc2)cc1)C1CCC(CSC(=S)N2CCCC2)C1C(=O)O (centres unmarked) [Example 3]	21	67	31	–	177 to 178
O=C(O)CC(C(=O)c1ccc(-c2ccccc2)cc1)c1ccccc1 (centres unmarked) [LXXVII]	–	–	–	inactive	–
O=C(O)C1[C@H](COCOCc2ccccc2)CC[C@@H]1C(=O)c1ccc(-c2ccc(Cl)cc2)cc1 (relative stereo) [Example 2]	9.5	24	17	–	112 to 130
O=C(c1ccc(-c2ccc(Cl)cc2)cc1)C1CCC(Cn2c(=O)oc3ccccc32)C1C(=O)O (centres unmarked) [Example 6]	0.5	4.3	4.1	–	–
O=C(CC(C(=O)O)c1ccccc1)c1ccc(-c2ccccc2)cc1 (centres unmarked) [XLIX]	–	–	–	inactive	–
O=C(c1ccc(-c2ccc(Cl)cc2)cc1)C1CCC(Cn2ncc3ccccc3c2=O)C1C(=O)O (centres unmarked) [Example 5]	1.4	2.3	4.2	–	–
